Reference: paper PMC9186362, “Design and biological evaluation of substituted 5,7-dihydro-6H-indolo[2,3-c]quinolin-6-one as novel selective Haspin inhibitors” (Journal of Enzyme Inhibition and Medicinal Chemistry, 2022)

Experiments:
[1] = target: MAPK14 (p38 alpha) Direct (Homo sapiens, UniProt Q16539); experiment: SelectScreen ZLYTE; assay type: biochemical; details: ATP Km, read-out: Percentage of inhibition
Procedure: (§1) We further evaluated the selectivity profile of compound 55 on a larger panel of kinases (SelectScreen Whole Panel, Life Technologies). The inhibition profile of 55, evaluated at 1 μM, is depicted on a dendrogram on Figure 3 where kinases inhibited by a minimum of 80% are shown. A full list of the kinases tested is shown on Table S1 in supplementary information.

CHEK1 (CHK1) = CHEK1 (CHK1) (Homo sapiens, UniProt O14757); experiment: SelectScreen ZLYTE; assay type: biochemical; details: ATP Km, read-out: Percentage of inhibition
Procedure: as §1

RPS6KA3 (RSK2) = target: T1, RPS6KA3 (RSK2) (Homo sapiens, UniProt P51812); experiment: SelectScreen ZLYTE; assay type: biochemical; details: ATP Km, read-out: Percentage of inhibition
T1 construct: purchased Life Technologies (SelectScreen service)
Procedure: as §1

MAPK11 (p38 beta) = target: T2, MAPK11 (p38 beta) (Homo sapiens, UniProt Q15759); experiment: SelectScreen ZLYTE; assay type: biochemical; details: ATP Km, read-out: Percentage of inhibition
T2 construct: purchased Life Technologies (SelectScreen)
Procedure: as §1

ITK = target: T3, ITK (Homo sapiens, UniProt Q08881); experiment: SelectScreen ZLYTE; assay type: biochemical; details: ATP Km, read-out: Percentage of inhibition
T3 construct: purchased Life Technologies (SelectScreen Whole Panel)
Procedure: as §1

BTK = target: T4, BTK (Homo sapiens, UniProt Q06187); experiment: SelectScreen ZLYTE; assay type: biochemical; details: ATP Km, read-out: Percentage of inhibition
T4 construct: purchased Life Technologies (SelectScreen service)
Procedure: as §1

RET = target: T5, RET (Homo sapiens, UniProt P07949); experiment: SelectScreen ZLYTE; assay type: biochemical; details: ATP Km, read-out: Percentage of inhibition
T5 construct: purchased Life Technologies
Procedure: as §1

SRPK1 = SRPK1 (Homo sapiens, UniProt Q96SB4); experiment: SelectScreen ZLYTE; assay type: biochemical; details: ATP Km, read-out: Percentage of inhibition
Procedure: as §1

GRK6 = target: T6, GRK6 (Homo sapiens, UniProt P43250); experiment: SelectScreen ZLYTE; assay type: biochemical; details: ATP Km, read-out: Percentage of inhibition
T6 construct: purchased Life Technologies
Procedure: as §1

ADRBK1 (GRK2) = target: T7, ADRBK1 (GRK2) (Homo sapiens, UniProt P25098); experiment: SelectScreen ZLYTE; assay type: biochemical; details: ATP Km, read-out: Percentage of inhibition
T7 construct: purchased Life Technologies (SelectScreen Whole Panel)
Procedure: as §1

PHKG2 = target: T8, PHKG2 (Homo sapiens, UniProt P15735); experiment: SelectScreen ZLYTE; assay type: biochemical; details: ATP Km, read-out: Percentage of inhibition
T8 construct: purchased Life Technologies (SelectScreen)
Procedure: as §1

PRKCD (PKC delta) = PRKCD (PKC delta) (Homo sapiens, UniProt Q05655); experiment: SelectScreen ZLYTE; assay type: biochemical; details: ATP Km, read-out: Percentage of inhibition
Procedure: as §1

IGF1R = IGF1R (Homo sapiens, UniProt P08069); experiment: SelectScreen ZLYTE; assay type: biochemical; details: ATP Km, read-out: Percentage of inhibition
Procedure: as §1

MAPK14 (p38 alpha) = target: T9, MAPK14 (p38 alpha) (Homo sapiens, UniProt Q16539); experiment: SelectScreen ZLYTE; assay type: biochemical; details: ATP 100 µM, read-out: Percentage of inhibition
T9 construct: purchased Life Technologies (SelectScreen Whole Panel service)
Procedure: as §1

RPS6KA4 (MSK2) = target: T10, RPS6KA4 (MSK2) (Homo sapiens, UniProt O75676); experiment: SelectScreen ZLYTE; assay type: biochemical; details: ATP Km, read-out: Percentage of inhibition
T10 construct: purchased Life Technologies
Procedure: as §1

EPHA4 = target: T11, EPHA4 (Homo sapiens, UniProt P54764); experiment: SelectScreen ZLYTE; assay type: biochemical; details: ATP Km, read-out: Percentage of inhibition
T11 construct: purchased Life Technologies (SelectScreen)
Procedure: as §1

TXK = TXK (Homo sapiens, UniProt P42681); experiment: SelectScreen ZLYTE; assay type: biochemical; details: ATP Km, read-out: Percentage of inhibition
Procedure: as §1

FGFR2 = target: T12, FGFR2 (Homo sapiens, UniProt P21802); experiment: SelectScreen ZLYTE; assay type: biochemical; details: ATP Km, read-out: Percentage of inhibition
T12 construct: purchased Life Technologies
Procedure: as §1

PKN1 (PRK1) = target: T13, PKN1 (PRK1) (Homo sapiens, UniProt Q16512); experiment: SelectScreen ZLYTE; assay type: biochemical; details: ATP Km, read-out: Percentage of inhibition
T13 construct: purchased Life Technologies
Procedure: as §1

RET V804E = target: T14, RET V804E (Homo sapiens, UniProt P07949, V804E); experiment: SelectScreen ZLYTE; assay type: biochemical; details: ATP Km, read-out: Percentage of inhibition
T14 construct: purchased Life Technologies (SelectScreen service)
Procedure: as §1

AMPK (A2/B1/G2) = AMPK (A2/B1/G2) (Homo sapiens, UniProt P54646); experiment: SelectScreen ZLYTE; assay type: biochemical; details: ATP Km, read-out: Percentage of inhibition
Procedure: as §1

EPHA3 = EPHA3 (Homo sapiens, UniProt P29320); experiment: LanthaScreen Binding - Eu-anti-His; details: read-out: Percentage of inhibition
Procedure: as §1

MAPK9 (JNK2) = target: T15, MAPK9 (JNK2) (Homo sapiens, UniProt P45984); experiment: LanthaScreen Binding - Eu-anti-His; details: read-out: Percentage of inhibition
T15 construct: purchased Life Technologies (SelectScreen service)
Procedure: as §1

KIT V654A = target: T16, KIT V654A (Homo sapiens, UniProt P10721, V654A); experiment: LanthaScreen Binding - Eu-anti-His; details: read-out: Percentage of inhibition
T16 construct: purchased Life Technologies (SelectScreen service)
Procedure: as §1

WNK1 = WNK1 (Homo sapiens, UniProt Q9H4A3); experiment: LanthaScreen Binding - Eu-anti-His; details: read-out: Percentage of inhibition
Procedure: as §1

MAPK15 (ERK7) = MAPK15 (ERK7) (Homo sapiens, UniProt Q8TD08); experiment: LanthaScreen Binding - Eu-anti-His; details: read-out: Percentage of inhibition
Procedure: as §1

STK16 (PKL12) = target: T17, STK16 (PKL12) (Homo sapiens, UniProt O75716); experiment: LanthaScreen Binding - Eu-anti-His; details: read-out: Percentage of inhibition
T17 construct: purchased Life Technologies (SelectScreen Whole Panel)
Procedure: as §1

CAMKK1 (CAMKKA) = target: T18, CAMKK1 (CAMKKA) (Homo sapiens, UniProt Q8N5S9); experiment: LanthaScreen Binding - Eu-anti-His; details: read-out: Percentage of inhibition
T18 construct: purchased Life Technologies (SelectScreen)
Procedure: as §1

WNK3 = target: T19, WNK3 (Homo sapiens, UniProt Q9BYP7); experiment: LanthaScreen Binding - Eu-anti-His; details: read-out: Percentage of inhibition
T19 construct: purchased Life Technologies (SelectScreen Whole Panel)
Procedure: as §1

[2] = target: T20, MAP3K7/MAP3K7IP1 (TAK1-TAB1) (Homo sapiens, UniProt O43318); experiment: LanthaScreen Binding - Eu-anti-His; details: read-out: Percentage of inhibition
T20 construct: purchased Life Technologies (SelectScreen Whole Panel)
Procedure: as §1

AMPK (A1/B2/G1) = target: T21, AMPK (A1/B2/G1) (Homo sapiens, UniProt Q13131); experiment: LanthaScreen Binding - Eu-anti-His; details: read-out: Percentage of inhibition
T21 construct: purchased Life Technologies (SelectScreen service)
Procedure: as §1

DAPK2 = target: T22, DAPK2 (Homo sapiens, UniProt Q9UIK4); experiment: LanthaScreen Binding - Eu-anti-His; details: read-out: Percentage of inhibition
T22 construct: purchased Life Technologies (SelectScreen service)
Procedure: as §1

MAP2K6 (MKK6) = target: T23, MAP2K6 (MKK6) (Homo sapiens, UniProt P52564); experiment: LanthaScreen Binding - Eu-anti-His; details: read-out: Percentage of inhibition
T23 construct: purchased Life Technologies (SelectScreen Whole Panel service)
Procedure: as §1

[3] = target: T24, MAP2K6 (MKK6) S207E T211E (Homo sapiens, UniProt P52564, S207E/T211E); experiment: LanthaScreen Binding - Eu-anti-His; details: read-out: Percentage of inhibition
T24 construct: purchased Life Technologies (SelectScreen Whole Panel service)
Procedure: as §1

AMPK (A1/B1/G2) = target: T25, AMPK (A1/B1/G2) (Homo sapiens, UniProt Q13131); experiment: LanthaScreen Binding - Eu-anti-His; details: read-out: Percentage of inhibition
T25 construct: purchased Life Technologies (SelectScreen service)
Procedure: as §1

AMPK (A1/B1/G3) = target: T26, AMPK (A1/B1/G3) (Homo sapiens, UniProt Q13131); experiment: LanthaScreen Binding - Eu-anti-His; details: read-out: Percentage of inhibition
T26 construct: purchased Life Technologies (SelectScreen service)
Procedure: as §1

TEC = target: T27, TEC (Homo sapiens, UniProt P42680); experiment: LanthaScreen Binding - Eu-anti-His; details: read-out: Percentage of inhibition
T27 construct: purchased Life Technologies
Procedure: as §1

LIMK1 = target: T28, LIMK1 (Homo sapiens, UniProt P53667); experiment: LanthaScreen Binding - Eu-anti-His; details: read-out: Percentage of inhibition
T28 construct: purchased Life Technologies (SelectScreen service)
Procedure: as §1

Sequence of AMPK (A2/B1/G2) (P54646 whole entry): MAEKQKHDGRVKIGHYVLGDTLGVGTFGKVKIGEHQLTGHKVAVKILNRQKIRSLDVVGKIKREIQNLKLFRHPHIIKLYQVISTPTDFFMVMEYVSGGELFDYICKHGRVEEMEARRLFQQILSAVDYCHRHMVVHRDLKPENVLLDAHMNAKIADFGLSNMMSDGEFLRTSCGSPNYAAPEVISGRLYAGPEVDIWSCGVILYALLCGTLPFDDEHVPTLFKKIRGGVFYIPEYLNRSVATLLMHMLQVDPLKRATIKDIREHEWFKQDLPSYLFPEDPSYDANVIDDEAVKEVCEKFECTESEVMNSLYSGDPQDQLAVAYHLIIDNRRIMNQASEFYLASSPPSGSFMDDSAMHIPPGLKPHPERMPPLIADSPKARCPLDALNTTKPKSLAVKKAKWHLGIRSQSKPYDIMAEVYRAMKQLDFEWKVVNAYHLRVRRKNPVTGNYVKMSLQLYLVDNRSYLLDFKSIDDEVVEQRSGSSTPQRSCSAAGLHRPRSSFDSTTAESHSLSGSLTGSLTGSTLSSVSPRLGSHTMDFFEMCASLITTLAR
Sequence of AMPK (A2/B1/G2) (Q9Y478 whole entry partner): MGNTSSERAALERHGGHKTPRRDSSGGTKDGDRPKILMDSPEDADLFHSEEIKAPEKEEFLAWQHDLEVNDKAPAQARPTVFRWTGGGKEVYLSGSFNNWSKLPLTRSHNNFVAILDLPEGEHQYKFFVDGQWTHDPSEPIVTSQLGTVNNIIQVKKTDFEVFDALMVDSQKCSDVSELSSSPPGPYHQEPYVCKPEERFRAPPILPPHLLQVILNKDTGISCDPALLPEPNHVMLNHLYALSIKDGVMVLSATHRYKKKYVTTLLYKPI
Sequence of AMPK (A2/B1/G2) (Q9UGJ0 whole entry partner): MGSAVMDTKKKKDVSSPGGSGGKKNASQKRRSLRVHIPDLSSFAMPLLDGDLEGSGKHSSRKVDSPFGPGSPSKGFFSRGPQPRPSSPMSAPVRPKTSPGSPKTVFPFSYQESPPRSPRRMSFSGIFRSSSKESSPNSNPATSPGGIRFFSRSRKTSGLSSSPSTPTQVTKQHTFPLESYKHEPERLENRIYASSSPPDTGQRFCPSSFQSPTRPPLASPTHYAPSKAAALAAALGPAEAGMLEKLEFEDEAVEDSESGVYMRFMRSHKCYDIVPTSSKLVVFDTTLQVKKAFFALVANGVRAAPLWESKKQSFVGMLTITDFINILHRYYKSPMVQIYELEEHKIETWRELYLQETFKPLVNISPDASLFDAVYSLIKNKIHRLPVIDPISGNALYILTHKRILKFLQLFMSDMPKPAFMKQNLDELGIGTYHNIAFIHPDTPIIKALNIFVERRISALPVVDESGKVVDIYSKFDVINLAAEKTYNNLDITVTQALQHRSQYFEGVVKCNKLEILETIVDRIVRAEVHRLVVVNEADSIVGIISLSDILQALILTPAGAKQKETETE
T12 sequence (P21802 22-821): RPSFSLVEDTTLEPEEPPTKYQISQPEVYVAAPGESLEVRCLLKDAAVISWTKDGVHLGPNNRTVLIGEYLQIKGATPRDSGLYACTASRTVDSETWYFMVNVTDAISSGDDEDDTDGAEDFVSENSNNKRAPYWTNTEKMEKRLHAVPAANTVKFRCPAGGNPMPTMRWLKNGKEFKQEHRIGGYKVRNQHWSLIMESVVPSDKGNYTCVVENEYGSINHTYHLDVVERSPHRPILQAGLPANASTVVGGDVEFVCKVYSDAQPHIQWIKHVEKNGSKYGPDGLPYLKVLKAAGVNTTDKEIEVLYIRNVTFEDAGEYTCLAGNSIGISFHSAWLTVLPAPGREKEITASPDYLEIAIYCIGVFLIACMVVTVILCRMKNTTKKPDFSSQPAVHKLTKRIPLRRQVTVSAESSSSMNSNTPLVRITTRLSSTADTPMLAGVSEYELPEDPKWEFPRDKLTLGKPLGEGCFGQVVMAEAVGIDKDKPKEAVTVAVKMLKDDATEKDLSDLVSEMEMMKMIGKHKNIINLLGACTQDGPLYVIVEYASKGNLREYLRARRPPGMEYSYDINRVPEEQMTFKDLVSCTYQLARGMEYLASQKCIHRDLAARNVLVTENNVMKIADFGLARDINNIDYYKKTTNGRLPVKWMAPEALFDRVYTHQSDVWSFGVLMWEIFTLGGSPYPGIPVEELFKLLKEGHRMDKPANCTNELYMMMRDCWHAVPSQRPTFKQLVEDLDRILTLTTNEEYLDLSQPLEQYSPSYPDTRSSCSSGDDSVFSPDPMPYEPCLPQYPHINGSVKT
T7 sequence (P25098 whole entry): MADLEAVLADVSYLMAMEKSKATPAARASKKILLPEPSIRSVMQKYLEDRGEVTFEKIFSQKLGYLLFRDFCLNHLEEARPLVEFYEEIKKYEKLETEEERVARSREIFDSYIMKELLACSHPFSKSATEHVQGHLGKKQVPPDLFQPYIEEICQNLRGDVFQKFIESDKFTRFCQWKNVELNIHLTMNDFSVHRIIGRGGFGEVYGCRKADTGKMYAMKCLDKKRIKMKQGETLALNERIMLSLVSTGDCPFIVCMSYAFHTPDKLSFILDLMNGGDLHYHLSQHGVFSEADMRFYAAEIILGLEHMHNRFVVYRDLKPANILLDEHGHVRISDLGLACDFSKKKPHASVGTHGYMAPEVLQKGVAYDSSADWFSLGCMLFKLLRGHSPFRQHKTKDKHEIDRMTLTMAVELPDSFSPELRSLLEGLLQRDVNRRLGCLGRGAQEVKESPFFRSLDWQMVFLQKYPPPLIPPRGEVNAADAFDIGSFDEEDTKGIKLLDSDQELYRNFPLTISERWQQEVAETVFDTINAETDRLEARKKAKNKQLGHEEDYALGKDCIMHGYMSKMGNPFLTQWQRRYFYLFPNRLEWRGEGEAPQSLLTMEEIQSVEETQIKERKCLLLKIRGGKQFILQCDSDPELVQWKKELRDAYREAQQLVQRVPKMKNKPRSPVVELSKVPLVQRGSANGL
T14 sequence (P07949 29-1114 V804E): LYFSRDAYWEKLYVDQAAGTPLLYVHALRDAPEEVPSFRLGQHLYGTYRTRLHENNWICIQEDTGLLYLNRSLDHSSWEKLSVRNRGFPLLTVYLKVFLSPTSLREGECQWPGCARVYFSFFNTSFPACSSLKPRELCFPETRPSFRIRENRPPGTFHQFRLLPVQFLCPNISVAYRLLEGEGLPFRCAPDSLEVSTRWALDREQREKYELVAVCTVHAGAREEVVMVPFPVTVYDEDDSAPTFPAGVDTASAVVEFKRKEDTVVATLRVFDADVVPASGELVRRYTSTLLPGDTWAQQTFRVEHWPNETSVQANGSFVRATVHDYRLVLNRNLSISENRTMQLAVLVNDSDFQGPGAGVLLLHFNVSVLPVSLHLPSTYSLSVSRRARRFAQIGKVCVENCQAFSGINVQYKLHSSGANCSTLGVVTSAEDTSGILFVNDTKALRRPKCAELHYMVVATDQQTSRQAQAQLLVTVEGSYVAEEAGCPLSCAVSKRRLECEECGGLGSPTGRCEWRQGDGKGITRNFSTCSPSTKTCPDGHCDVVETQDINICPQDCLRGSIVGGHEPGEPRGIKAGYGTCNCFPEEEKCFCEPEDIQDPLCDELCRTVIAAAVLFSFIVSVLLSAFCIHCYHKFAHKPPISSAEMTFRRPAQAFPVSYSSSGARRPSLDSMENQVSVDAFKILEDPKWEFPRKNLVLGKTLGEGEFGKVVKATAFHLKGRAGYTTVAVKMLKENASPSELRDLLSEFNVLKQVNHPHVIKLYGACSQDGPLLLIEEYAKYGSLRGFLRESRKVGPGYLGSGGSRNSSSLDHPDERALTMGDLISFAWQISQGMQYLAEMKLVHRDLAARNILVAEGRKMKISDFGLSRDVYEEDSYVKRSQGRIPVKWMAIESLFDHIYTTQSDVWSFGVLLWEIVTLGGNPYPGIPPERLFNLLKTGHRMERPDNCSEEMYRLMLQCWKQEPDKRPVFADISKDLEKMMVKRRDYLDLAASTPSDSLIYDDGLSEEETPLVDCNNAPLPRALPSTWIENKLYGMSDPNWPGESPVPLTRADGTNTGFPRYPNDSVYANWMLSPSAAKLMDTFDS
Sequence of MAPK15 (ERK7) (Q8TD08 whole entry): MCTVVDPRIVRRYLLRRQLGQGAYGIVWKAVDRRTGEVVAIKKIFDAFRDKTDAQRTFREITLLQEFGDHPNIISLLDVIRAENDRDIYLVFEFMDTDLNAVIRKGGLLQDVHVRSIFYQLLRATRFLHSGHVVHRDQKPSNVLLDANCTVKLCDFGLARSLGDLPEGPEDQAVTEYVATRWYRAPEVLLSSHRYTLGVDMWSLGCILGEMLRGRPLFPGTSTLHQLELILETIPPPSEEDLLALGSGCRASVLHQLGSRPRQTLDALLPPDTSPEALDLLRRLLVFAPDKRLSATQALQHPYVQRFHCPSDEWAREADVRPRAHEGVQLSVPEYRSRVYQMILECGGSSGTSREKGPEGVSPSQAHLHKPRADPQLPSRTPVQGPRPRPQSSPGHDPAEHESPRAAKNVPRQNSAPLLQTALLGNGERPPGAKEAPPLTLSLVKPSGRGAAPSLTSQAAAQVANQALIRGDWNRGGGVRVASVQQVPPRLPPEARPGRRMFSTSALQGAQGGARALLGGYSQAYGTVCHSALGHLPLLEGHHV
T9 sequence (Q16539 whole entry): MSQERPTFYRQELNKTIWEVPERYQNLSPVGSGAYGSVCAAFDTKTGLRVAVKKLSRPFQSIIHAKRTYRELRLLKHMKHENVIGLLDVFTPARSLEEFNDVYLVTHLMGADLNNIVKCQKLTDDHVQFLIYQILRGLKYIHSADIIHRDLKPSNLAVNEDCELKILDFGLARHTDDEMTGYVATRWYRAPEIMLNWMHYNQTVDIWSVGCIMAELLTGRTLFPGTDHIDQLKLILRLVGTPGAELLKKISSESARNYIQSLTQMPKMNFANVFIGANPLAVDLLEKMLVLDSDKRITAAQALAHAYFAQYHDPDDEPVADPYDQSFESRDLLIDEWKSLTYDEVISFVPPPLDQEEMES
Sequence of MAPK14 (p38 alpha) Direct (Q16539 whole entry): as above
T5 sequence (P07949 29-1114): as the sequence (P07949 29-1114 V804E) above, with E776V counted along it

COc1ccc2[nH]c3c(=O)[nH]c4ccc(O)cc4c3c2c1 [Compound 55, 2-Hydroxy-10-methoxy-5,7-dihydro-6H-indolo[2,3-c]quinolin-6-one]
inhibition at 1 µM [1]: 6%
inhibition at 1 µM (CHEK1 (CHK1)): 19%
inhibition at 1 µM (RPS6KA3 (RSK2)): 83%
inhibition at 1 µM (MAPK11 (p38 beta)): 8%
inhibition at 1 µM (ITK): 49%
inhibition at 1 µM (BTK): 24%
inhibition at 1 µM (RET): 97%
inhibition at 1 µM (SRPK1): 7%
inhibition at 1 µM (GRK6): 32%
inhibition at 1 µM (ADRBK1 (GRK2)): -3%
inhibition at 1 µM (PHKG2): 8%
inhibition at 1 µM (PRKCD (PKC delta)): 7%
inhibition at 1 µM (IGF1R): 13%
inhibition at 1 µM (MAPK14 (p38 alpha)): 12%
inhibition at 1 µM (RPS6KA4 (MSK2)): 39%
inhibition at 1 µM (EPHA4): 7%
inhibition at 1 µM (TXK): 22%
inhibition at 1 µM (FGFR2): 42%
inhibition at 1 µM (PKN1 (PRK1)): 4%
inhibition at 1 µM (RET V804E): 86%
inhibition at 1 µM (AMPK (A2/B1/G2)): 63%
inhibition at 1 µM (EPHA3): 13%
inhibition at 1 µM (MAPK9 (JNK2)): 25%
inhibition at 1 µM (KIT V654A): 25%
inhibition at 1 µM (WNK1): 7%
inhibition at 1 µM (MAPK15 (ERK7)): 58%
inhibition at 1 µM (STK16 (PKL12)): 51%
inhibition at 1 µM (CAMKK1 (CAMKKA)): 8%
inhibition at 1 µM (WNK3): 2%
inhibition at 1 µM [2]: 98%
inhibition at 1 µM (AMPK (A1/B2/G1)): 86%
inhibition at 1 µM (DAPK2): 90%
inhibition at 1 µM (MAP2K6 (MKK6)): 2%
inhibition at 1 µM [3]: 18%
inhibition at 1 µM (AMPK (A1/B1/G2)): 81%
inhibition at 1 µM (AMPK (A1/B1/G3)): 82%
inhibition at 1 µM (TEC): 4%
inhibition at 1 µM (LIMK1): 23%
